One block for each molecule: values may come before it. The source made the active and inactive calls. The rule behind the calls is not given here.
Key:
Calf thymus DNA [1] = assay: Binding affinity to calf thymus DNA assessed as change in melting temperature at compound to DNA molar ratio of 0.2 at pH 7 by thermal denaturation assay; assay type: nucleic-acid assay; conditions: Bos taurus
Calf thymus DNA [2] = assay: Binding affinity to calf thymus DNA assessed as change in melting temperature at compound to DNA molar ratio of 0.3 at pH 7 by thermal denaturation assay; assay type: nucleic-acid assay; conditions: Bos taurus
Nucleic Acid [3] = assay: Binding affinity to […] assessed as melting temperature at compound to DNA molar ratio of 0.2 at pH 7 by thermal denaturation assay; assay type: nucleic-acid assay
Calf thymus DNA [4] = assay: Binding affinity to calf thymus DNA assessed as change in melting temperature at compound to DNA molar ratio of 0.2 at pH 5 by thermal denaturation assay; assay type: nucleic-acid assay; conditions: Bos taurus
Nucleic Acid [5] = assay: Binding affinity to […] assessed as melting temperature at compound to DNA molar ratio of 0.2 at pH 5 by thermal denaturation assay; assay type: nucleic-acid assay
Nucleic Acid [6] = assay: Binding affinity to poly dA-poly dT RNA in citric acid buffer at pH 5 by fluorescence titration assay relative to control; assay type: nucleic-acid assay
Nucleic Acid [7] = assay: Binding affinity to poly A-poly U RNA assessed as change in melting temperature at compound to DNA molar ratio of 0.2 at pH 7 by thermal denaturation assay; assay type: nucleic-acid assay
Caco-2 [8] = assay: Cytotoxicity against human Caco-2 cells at 0.1 to 100 uM after 72 hrs by MTT assay; assay type: functional, cell-based
Nucleic Acid [9] = assay: Binding affinity to CMP in citric acid buffer at pH 5 by fluorescence titration assay relative to control; assay type: nucleic-acid assay
MIA PaCa-2 [10] = assay: Cytotoxicity against human MIAPaCa2 cells at 100 uM after 72 hrs by MTT assay; assay type: functional; conditions: MIA PaCa-2, 72 h
Calf thymus DNA [11] = assay: Binding affinity to calf thymus DNA in sodium cacodylate buffer at pH 7 by fluorescence titration assay; assay type: nucleic-acid assay; conditions: Bos taurus
Calf thymus DNA [12] = assay: Binding affinity to calf thymus DNA at compound to DNA molar ratio of 0.1 to 0.5 at pH 5 by circular dichroism; assay type: nucleic-acid assay; conditions: Bos taurus
MIA PaCa-2 [13] = assay: Cytotoxicity against human MIAPaCa2 cells at 0.1 to 100 uM after 72 hrs by MTT assay; assay type: functional, cell-based
Nucleic Acid [14] = assay: Binding affinity to […] assessed as melting temperature at compound to DNA molar ratio of 0.3 at pH 7 by thermal denaturation assay; assay type: nucleic-acid assay
Nucleic Acid [15] = assay: Binding affinity to […] assessed as melting temperature at compound to DNA molar ratio of 0.3 at pH 5 by thermal denaturation assay; assay type: nucleic-acid assay
Nucleic Acid [16] = assay: Binding affinity to poly G-poly C RNA in sodium cacodylate buffer at pH 7 by fluorescence titration assay relative to control; assay type: nucleic-acid assay
Calf thymus DNA [17] = assay: Binding affinity to calf thymus DNA in citric acid buffer at pH 5 by fluorescence titration assay; assay type: nucleic-acid assay; conditions: Bos taurus
Calf thymus DNA [18] = assay: Binding affinity to calf thymus DNA assessed as melting temperature at compound to DNA molar ratio of 0.3 at pH 7 by thermal denaturation assay; assay type: nucleic-acid assay; conditions: Bos taurus
Nucleic Acid [19] = assay: Binding affinity to poly A-poly U RNA assessed as melting temperature at compound to DNA molar ratio of 0.3 at pH 7 by thermal denaturation assay; assay type: nucleic-acid assay
Nucleic Acid [20] = assay: Binding affinity to […] assessed as change in melting temperature at compound to DNA molar ratio of 0.2 at pH 7 by thermal denaturation assay; assay type: nucleic-acid assay
Calf thymus DNA [21] = assay: Binding affinity to calf thymus DNA assessed as change in melting temperature at compound to DNA molar ratio of 0.3 at pH 5 by thermal denaturation assay; assay type: nucleic-acid assay; conditions: Bos taurus
Nucleic Acid [22] = assay: Binding affinity to AMP in sodium cacodylate buffer at pH 7 by fluorescence titration assay relative to control; assay type: nucleic-acid assay
Nucleic Acid [23] = assay: Binding affinity to GMP in citric acid buffer at pH 5 by fluorescence titration assay relative to control; assay type: nucleic-acid assay
Calf thymus DNA [24] = assay: Binding affinity to calf thymus DNA assessed as melting temperature at compound to DNA molar ratio of 0.2 at pH 7 by thermal denaturation assay; assay type: nucleic-acid assay; conditions: Bos taurus
Nucleic Acid [25] = assay: Binding affinity to poly dA-poly dT RNA in citric acid buffer at pH 5 by fluorescence titration assay; assay type: nucleic-acid assay
Nucleic Acid [26] = assay: Binding affinity to poly A-poly U RNA assessed as biphasic transitions of melting temperature at compound to DNA molar ratio of 0.2 at pH 5 by thermal denaturation assay; assay type: nucleic-acid assay
MIA PaCa-2 [27] = assay: Cytotoxicity against human MIAPaCa2 cells after 72 hrs by MTT assay; assay type: functional, cell-based
Nucleic Acid [28] = assay: Binding affinity to poly G-poly C RNA in citric acid buffer at pH 5 by fluorescence titration assay relative to control; assay type: nucleic-acid assay
Calf thymus DNA [29] = assay: Binding affinity to calf thymus DNA in sodium cacodylate buffer at pH 7 by fluorescence titration assay relative to control; assay type: nucleic-acid assay; conditions: Bos taurus
Caco-2 [30] = assay: Cytotoxicity against human Caco-2 cells at 100 uM after 72 hrs by MTT assay; assay type: functional, cell-based
Nucleic Acid [31] = assay: Binding affinity to poly A-poly U RNA in sodium cacodylate buffer at pH 7 by fluorescence titration assay relative to control; assay type: nucleic-acid assay
Calf thymus DNA [32] = assay: Binding affinity to calf thymus DNA assessed as melting temperature at compound to DNA molar ratio of 0.2 at pH 5 by thermal denaturation assay; assay type: nucleic-acid assay; conditions: Bos taurus
Nucleic Acid [33] = assay: Binding affinity to poly A-poly U RNA assessed as melting temperature at compound to DNA molar ratio of 0.2 at pH 7 by thermal denaturation assay; assay type: nucleic-acid assay
HEp-2 = assay: Cytotoxicity against human Hep2 cells at 0.1 to 100 uM after 72 hrs by MTT assay; assay type: functional, cell-based
Nucleic Acid [34] = assay: Binding affinity to poly A-poly U RNA assessed as melting temperature at compound to DNA molar ratio of 0.2 at pH 5 by thermal denaturation assay; assay type: nucleic-acid assay
Nucleic Acid [35] = assay: Binding affinity to GMP in sodium cacodylate buffer at pH 7 by fluorescence titration assay relative to control; assay type: nucleic-acid assay
Nucleic Acid [36] = assay: Binding affinity to AMP in citric acid buffer at pH 5 by fluorescence titration assay relative to control; assay type: nucleic-acid assay
Nucleic Acid [37] = assay: Binding affinity to poly A-poly U RNA at compound to DNA molar ratio of 0.1 to 0.5 at pH 5 by circular dichroism; assay type: nucleic-acid assay
Nucleic Acid [38] = assay: Binding affinity to poly A-poly U RNA in citric acid buffer at pH 5 by fluorescence titration assay relative to control; assay type: nucleic-acid assay
Nucleic Acid [39] = assay: Binding affinity to poly dA-poly dT RNA in sodium cacodylate buffer at pH 7 by fluorescence titration assay; assay type: nucleic-acid assay
Nucleic Acid [40] = assay: Binding affinity to poly dA-poly dT RNA in sodium cacodylate buffer at pH 7 by fluorescence titration assay relative to control; assay type: nucleic-acid assay
Nucleic Acid [41] = assay: Binding affinity to […] assessed as change in melting temperature at compound to DNA molar ratio of 0.3 at pH 5 by thermal denaturation assay; assay type: nucleic-acid assay
Nucleic Acid [42] = assay: Binding affinity to poly G-poly C RNA in citric acid buffer at pH 5 by fluorescence titration assay; assay type: nucleic-acid assay
Nucleic Acid [43] = assay: Binding affinity to CMP in sodium cacodylate buffer at pH 7 by fluorescence titration assay relative to control; assay type: nucleic-acid assay
Nucleic Acid [44] = assay: Binding affinity to poly dA-poly dT RNA in sodium cacodylate buffer at pH 7 by UV-v titration assay; assay type: nucleic-acid assay

ΔTm (Calf thymus DNA [1]): 3.9 °C
ΔTm (Calf thymus DNA [2]): 5.5 °C
Tm (Nucleic Acid [3]): 70.1 °C
ΔTm (Calf thymus DNA [4]): 14 °C
Tm (Nucleic Acid [5]): 59.7 °C
RFU (Nucleic Acid [6]): 24
ΔTm (Nucleic Acid [7]): 0 °C
RFU (Nucleic Acid [9]): -15.3
log Ks (Calf thymus DNA [11]): 6.2
Activity (Calf thymus DNA [12]): Active
Tm (Nucleic Acid [14]): 71.3 °C
Tm (Nucleic Acid [15]): 60.4 °C
RFU (Nucleic Acid [16]): 0.3
log Ks (Calf thymus DNA [17]): > 7
Tm (Calf thymus DNA [18]): 84.8 °C
Tm (Nucleic Acid [19]): 51.5 °C
ΔTm (Nucleic Acid [20]): 5.2 °C
ΔTm (Calf thymus DNA [21]): 15.7 °C
RFU (Nucleic Acid [22]): -47.8
RFU (Nucleic Acid [23]): 31.6
Tm (Calf thymus DNA [24]): 83.2 °C
log Ks (Nucleic Acid [25]): 6.1
Tm (Nucleic Acid [26]): 31.4 °C
RFU (Nucleic Acid [28]): 0
RFU (Calf thymus DNA [29]): 1.8
RFU (Nucleic Acid [31]): 15.8
Tm (Calf thymus DNA [32]): 74.6 °C
Tm (Nucleic Acid [33]): 51.5 °C
Tm (Nucleic Acid [34]): 83 °C
RFU (Nucleic Acid [35]): 6.3
RFU (Nucleic Acid [36]): 3.8
Activity (Nucleic Acid [37]): Active
RFU (Nucleic Acid [38]): 20
log Ks (Nucleic Acid [39]): 5.3
RFU (Nucleic Acid [40]): 10.7
ΔTm (Nucleic Acid [41]): 10.4 °C
log Ks (Nucleic Acid [42]): 5.5
RFU (Nucleic Acid [43]): 3.5
log Ks (Nucleic Acid [44]): 5.6
SMILES: Cc1c2cc(NC(=O)NCCCCCCNC(=O)Nc3ccc4c(c3)c(C)[n+](C)c3ccccc43)ccc2c2ccccc2[n+]1C.O=S(=O)([O-])O.O=S(=O)([O-])O
Activity (Caco-2 [8]): Active
inhibition at 100 µM (MIA PaCa-2 [10]): 43.1%
Activity (MIA PaCa-2 [13]): Active
Activity (MIA PaCa-2 [27]): Dose-dependent effect
Activity (Caco-2 [30]): Active
Activity (HEp-2): Active

ΔTm (Calf thymus DNA [1]): 4.9 °C
ΔTm (Calf thymus DNA [2]): 5.8 °C
Tm (Nucleic Acid [3]): 69.1 °C
ΔTm (Calf thymus DNA [4]): 13.2 °C
Tm (Nucleic Acid [5]): 57.5 °C
RFU (Nucleic Acid [6]): 2.3
ΔTm (Nucleic Acid [7]): 2.3 °C
RFU (Nucleic Acid [9]): -6.4
log Ks (Calf thymus DNA [11]): 5.9
Activity (Calf thymus DNA [12]): Active
Tm (Nucleic Acid [14]): 70.4 °C
Tm (Nucleic Acid [15]): 57.7 °C
RFU (Nucleic Acid [16]): 0.5
log Ks (Calf thymus DNA [17]): 5.6
Tm (Calf thymus DNA [18]): 85.1 °C
Tm (Nucleic Acid [19]): 53.6 °C
ΔTm (Nucleic Acid [20]): 4.2 °C
ΔTm (Calf thymus DNA [21]): 13.4 °C
RFU (Nucleic Acid [22]): -55
RFU (Nucleic Acid [23]): -7.2
Tm (Calf thymus DNA [24]): 84.2 °C
log Ks (Nucleic Acid [25]): 6.6
Tm (Nucleic Acid [26]): 31 °C
RFU (Nucleic Acid [28]): 0
RFU (Calf thymus DNA [29]): 0.7
RFU (Nucleic Acid [31]): 4
Tm (Calf thymus DNA [32]): 73.8 °C
Tm (Nucleic Acid [33]): 53.8 °C
Tm (Nucleic Acid [34]): 82.9 °C
RFU (Nucleic Acid [35]): -16.7
RFU (Nucleic Acid [36]): -38.5
Activity (Nucleic Acid [37]): Active
RFU (Nucleic Acid [38]): 8.1
log Ks (Nucleic Acid [39]): 5.6
RFU (Nucleic Acid [40]): 3.9
ΔTm (Nucleic Acid [41]): 7.7 °C
log Ks (Nucleic Acid [42]): 5.2
RFU (Nucleic Acid [43]): -9.4
log Ks (Nucleic Acid [44]): 5.3
SMILES: Cc1c2cc(NC(=O)NCCCCCCCCCNC(=O)Nc3ccc4c(c3)c(C)[n+](C)c3ccccc43)ccc2c2ccccc2[n+]1C.O=S(=O)([O-])O.O=S(=O)([O-])O
Activity (Caco-2 [8]): inactive
inhibition at 100 µM (MIA PaCa-2 [10]): 26.8%
Activity (MIA PaCa-2 [13]): inactive
Activity (MIA PaCa-2 [27]): Dose-dependent effect
Activity (Caco-2 [30]): inactive
Activity (HEp-2): inactive
